Tests used:
SCAA-1 = conditions: known from Japanese Patent Application No. 2008-903571; cited from earlier work
SCAA-2 = conditions: known from Japanese Patent Application No. 2008-903571; cited from earlier work
Human SCCA1 = experiment: SCCA-1 expression-inhibiting effect in cultured human keratinocytes (quantitative PCR, G3PDH internal standard); format: cell-based; conditions: 24 hours after addition at different concentrations, vs no-drug negative control, FIG. 1-3
Description: SCCA-1 expression-inhibiting effects of carboxyamide derivatives in cell line:
Human keratinocytes were cultured, and carboxyamide derivatives at different concentrations were added at 60-70% confluency. The carboxyamide derivatives used were the following:
After 24 hours, the RNA was obtained, and then it was subjected to a quantitative PCR analysis by ABI PRISM 7900HT Sequence Detector System (Taqman PE) (Applied Biosystems) with using a primer/probe combination shown below, thereby the amount of SCCA gene expression was measured (using G3PDH as the internal standard). • Human SCCA1 • Forward primer: 5′-GTGCTATCTGGAGTCCT-3′ (SEQ ID NO: 1) • Reverse primer: 5′-CTGTTGTTGCCAGCAA-3′ (SEQ ID NO: 2) • Probe: 5′-CATCACCTACTTCAACT-3′ (SEQ ID NO: 3) • Human G3PDH • Forward primer: 5′-GAAGGTGAAGGTCGGAGTC-3′ (SEQ ID NO: 4) • Reverse primer: 5′-[…]-3′ (SEQ ID NO: 5) • Probe: 5′-[…]-3′ (SEQ ID NO: 6)

Row | SMILES | gene expression-inhibiting effect on SCAA-1 (SCAA-1) | gene expression-inhibiting effect on SCAA-2 (SCAA-2) | SCCA-1 gene expression (Human SCCA1)
1 | O=C(O)CCN1CCCCC1 [1-piperidinepropionic acid (1-PP), 1-piperidinepropionic acid] | gene expression-inhibiting effect | gene expression-inhibiting effect | –
2 | O=C1NCCN1 [ethyleneurea] | – | – | significant dose-dependent reduction in SCCA-1 gene expression
3 | O=C1CCCN1CCO [1-(2-hydroxyethyl)-2-pyrrolidone] | – | – | significant dose-dependent reduction in SCCA-1 gene expression
4 | O=C1NCCN1CCO [1-(2-hydroxyethyl)-2-imidazolidinone] | – | – | significant dose-dependent reduction in SCCA-1 gene expression
5 | NC(N)=O [urea] | – | – | significant dose-dependent reduction in SCCA-1 gene expression
6 | NC(=O)NC1NC(=O)NC1=O (stereo not shown) [allantoin] | – | – | significant dose-dependent reduction in SCCA-1 gene expression

Source: patent US20120283302A1, “SCCA-1 PRODUCTION INHIBITOR HAVING A CARBOXAMIDE DERIVATIVE AND/OR A SALT THEREOF AS AN ACTIVE INGREDIENT” (SHISEIDO COMPANY, LTD, priority 2009, published 2012)
